Test results: US20250163104A1, “MACROCYCLIC IMMUNOMODULATORS” (priority 2021, published 2025)
Where a SMILES comes first, the peptide text is derived from it. Bridges are numbered along the chain shown (N, C = ends). [ ]: non-standard residue; d: D form. The star is where a group is joined. ξ: configuration not given here. Phe(4-CF3) = N[C@@H](Cc1ccc(C(F)(F)F)cc1)C(=O)O; Phe(4-COOH) = N[C@@H](Cc1ccc(C(=O)O)cc1)C(=O)O; Bip = N[C@@H](Cc1ccc(-c2ccccc2)cc1)C(=O)O; Phe(3-Me) = Cc1cccc(C[C@H](N)C(=O)O)c1; Phe(4-F) = N[C@@H](Cc1ccc(F)cc1)C(=O)O; Val(3-OH) = CC(C)(O)[C@H](N)C(=O)O; Cha = N[C@@H](CC1CCCCC1)C(=O)O; Thr(3ξ) = CC(O)[C@H](N)C(=O)O; NMeNle = CCCC[C@H](NC)C(=O)O; Carboxymethyl = O=C(O)C*; NMeA = CN[C@@H](C)C(=O)O; NMeAib = CNC(C)(C)C(=O)O; Nle = CCCC[C@H](N)C(=O)O; Orn = NCCC[C@H](N)C(=O)O; Pra = C#CC[C@H](N)C(=O)O; Dab = NCC[C@H](N)C(=O)O; CF3 = FC(F)(F)*

Each molecule was assayed against T1, human PD-1 / PD-L1-Ig binding on Jurkat cell line over-expressing human PD-1 (Jurkat-PD-1) (Homo sapiens, UniProt Q15116) (assay: Jurkat-PD-1 Cell Binding High-Content Screening Assay (CBA)). Conditions: Jurkat-PD-1 cells, PE-labeled PD-L1-Ig 20 nM final; read-out: Jurkat HPD1_PDL1 IC50.
T1 construct: expressed in transfected cells; host or cells: Jurkat
T1 sequence (Q15116 25-288): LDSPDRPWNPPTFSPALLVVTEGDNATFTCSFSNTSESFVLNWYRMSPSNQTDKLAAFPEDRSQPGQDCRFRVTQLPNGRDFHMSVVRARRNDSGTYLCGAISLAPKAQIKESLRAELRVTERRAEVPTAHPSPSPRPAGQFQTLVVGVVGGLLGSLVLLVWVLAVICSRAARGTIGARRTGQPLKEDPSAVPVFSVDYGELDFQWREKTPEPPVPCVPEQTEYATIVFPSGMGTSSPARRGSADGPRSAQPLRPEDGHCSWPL
Format: cell-based
In short: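 Cell-bound PE-labeled PD-L1-Ig (20 nM final, 1 h) measured by high-content imaging after fixation and Hoechst 33342 counterstain. Compound was applied first for 2 h at 37° C. to Jurkat cells over-expressing human PD-1 in DMEM with 10% FCS.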

Question: How did the IC50 turn out when `Cc1cccc(C[C@@H]2NC(=O)[C@H](CC(=O)O)NC(=O)[C@H](Cc3ccc(C(=O)O)cc3)NC(=O)[C@H](Cc3ccc(F)cc3)NC(=O)CSC[C@@H](C(=O)N[C@@H](CCN)C(N)=O)NC(=O)[C@H](Cc3cnc[nH]3)NC(=O)[C@H](C(C)(C)O)NC(=O)[C@H](CC3CCCCC3)NC(=O)[C@H](CCN)NC(=O)[C@@H](CC(C)C)NC(=O)[C@H](CCCN)NC(=O)[C@H](Cc3ccc(OCC(=O)O)cc3)NC(=O)[C@H](Cc3ccc(-c4ccccc4)cc3)NC(=O)[C@H](Cc3ccc(OCC(=O)O)cc3)NC2=O)c1` [Compound 2684] ({CH2CO}-[Phe(4-F)][Phe(4-COOH)]D[Phe(3-Me)]Y(Carboxymethyl)[Bip]Y(Carboxymethyl)[Orn][dL][Dab][Cha][Val(3-OH)]HC[Dab]-NH2; thioether N-14) was run?
Answer: Its IC50 is 0.0019 µM.

Question: `Cc1cccc(C[C@@H]2NC(=O)[C@H](CC(=O)O)NC(=O)[C@H](Cc3ccc(F)cc3)NC(=O)[C@H](C(C)O)NC(=O)CSC[C@@H](C(=O)N[C@@H](CCN)C(N)=O)NC(=O)[C@H](C(C)O)NC(=O)[C@H](C(C)(C)O)NC(=O)[C@H](CC3CCCCC3)NC(=O)[C@H](CCN)NC(=O)[C@@H](CC(C)C)NC(=O)[C@H](CCCN)NC(=O)[C@H](Cc3ccc(C(=O)O)cc3)NC(=O)[C@H](Cc3ccc(-c4ccccc4)cc3)NC(=O)[C@H](Cc3ccc(C(=O)O)cc3)NC2=O)c1` (stereo partly drawn) [Compound 2685] ({CH2CO}-[Thr(3ξ)][Phe(4-F)]D[Phe(3-Me)][Phe(4-COOH)][Bip][Phe(4-COOH)][Orn][dL][Dab][Cha][Val(3-OH)][Thr(3ξ)]C[Dab]-NH2; thioether N-14) was tested. Which IC50 did it give?
Answer: Its IC50 is 0.006 µM.

Question: Which IC50 does the source give for `C#CC[C@H](NC(=O)[C@@H]1CSCC(=O)N[C@@H](CCN)C(=O)N[C@@H](Cc2ccc(OCC(=O)O)cc2)C(=O)N[C@@H](CC(=O)O)C(=O)N[C@@H](Cc2cccc(C)c2)C(=O)N[C@@H](Cc2ccc(OCC(=O)O)cc2)C(=O)N[C@@H](Cc2ccc(-c3ccccc3)cc2)C(=O)N[C@@H](Cc2ccc(OCC(=O)O)cc2)C(=O)N[C@@H](CCCN)C(=O)N[C@H](CC(C)C)C(=O)N[C@@H](CCN)C(=O)N[C@@H](CC2CCCCC2)C(=O)N[C@@H](C(C)(C)O)C(=O)N[C@@H](CCCN)C(=O)N1)C(=O)O` [Compound 2686] ({CH2CO}-[Dab]Y(Carboxymethyl)D[Phe(3-Me)]Y(Carboxymethyl)[Bip]Y(Carboxymethyl)[Orn][dL][Dab][Cha][Val(3-OH)][Orn]C[Pra]-OH; thioether N-14) here?
Answer: The IC50 was 0.0333 µM.

Question: Which IC50 does the source give for `CCCC[C@@H]1NC(=O)CSC[C@@H](C(=O)N[C@@H](CCN)C(N)=O)NC(=O)[C@H](CO)NC(=O)[C@H](C(C)(C)O)NC(=O)[C@H](CC2CCCCC2)NC(=O)[C@H](CCN)NC(=O)[C@@H](CC(C)C)NC(=O)[C@H](CCCN)NC(=O)[C@H](Cc2ccc(OCC(=O)O)cc2)NC(=O)[C@H](Cc2ccc(-c3ccccc3)cc2)NC(=O)[C@H](Cc2ccc(OCC(=O)O)cc2)NC(=O)[C@H](Cc2cccc(C)c2)NC(=O)[C@H](CC(=O)O)NC(=O)[C@H](Cc2ccc(OCC(=O)O)cc2)NC1=O` [Compound 2687] ({CH2CO}-[Nle]Y(Carboxymethyl)D[Phe(3-Me)]Y(Carboxymethyl)[Bip]Y(Carboxymethyl)[Orn][dL][Dab][Cha][Val(3-OH)]SC[Dab]-NH2; thioether N-14) here?
Answer: The IC50 was 0.0004 µM.

Question: For `CCCC[C@H]1C(=O)N[C@@H](Cc2ccc(C(=O)O)cc2)C(=O)N[C@@H](CC(=O)O)C(=O)N[C@@H](Cc2cccc(C)c2)C(=O)N[C@@H](Cc2ccc(OCC(=O)O)cc2)C(=O)N[C@@H](Cc2ccc(-c3ccccc3)cc2)C(=O)N[C@@H](Cc2ccc(OCC(=O)O)cc2)C(=O)N[C@@H](CCCN)C(=O)N[C@H](CC(C)C)C(=O)N[C@@H](CCN)C(=O)N[C@@H](CC2CCCCC2)C(=O)N[C@@H](C(C)(C)O)C(=O)N[C@@H](CCC(=O)O)C(=O)N[C@H](C(=O)N[C@@H](CCN)C(N)=O)CSCC(=O)N1C` [Compound 2688] ({CH2CO}-[NMeNle][Phe(4-COOH)]D[Phe(3-Me)]Y(Carboxymethyl)[Bip]Y(Carboxymethyl)[Orn][dL][Dab][Cha][Val(3-OH)]EC[Dab]-NH2; thioether N-14), which IC50 is on record?
Answer: The IC50 was 0.0413 µM.

Question: For `Cc1cccc(C[C@@H]2NC(=O)[C@H](CC(=O)O)NC(=O)[C@H](Cc3ccc(C(=O)O)cc3)NC(=O)C(C)(C)N(C)C(=O)CSC[C@@H](C(=O)N[C@@H](CCN)C(N)=O)NC(=O)[C@H](CCC(=O)O)NC(=O)[C@H](C(C)(C)O)NC(=O)[C@H](CC3CCCCC3)NC(=O)[C@H](CCN)NC(=O)[C@@H](CC(C)C)NC(=O)[C@H](CCCN)NC(=O)[C@H](Cc3ccc(OCC(=O)O)cc3)NC(=O)[C@H](Cc3ccc(-c4ccccc4)cc3)NC(=O)[C@H](Cc3ccc(OCC(=O)O)cc3)NC2=O)c1` [Compound 2689] ({CH2CO}-[NMeAib][Phe(4-COOH)]D[Phe(3-Me)]Y(Carboxymethyl)[Bip]Y(Carboxymethyl)[Orn][dL][Dab][Cha][Val(3-OH)]EC[Dab]-NH2; thioether N-14), which IC50 is on record?
Answer: The IC50 was 0.411 µM.

Question: `Cc1cccc(C[C@@H]2NC(=O)[C@H](CC(=O)O)NC(=O)[C@H](Cc3ccc(C(=O)O)cc3)NC(=O)[C@H](C)N(C)C(=O)CSC[C@@H](C(=O)N[C@@H](CCN)C(N)=O)NC(=O)[C@H](CCC(=O)O)NC(=O)[C@H](C(C)(C)O)NC(=O)[C@H](CC3CCCCC3)NC(=O)[C@H](CCN)NC(=O)[C@@H](CC(C)C)NC(=O)[C@H](CCCN)NC(=O)[C@H](Cc3ccc(OCC(=O)O)cc3)NC(=O)[C@H](Cc3ccc(-c4ccccc4)cc3)NC(=O)[C@H](Cc3ccc(OCC(=O)O)cc3)NC2=O)c1` [Compound 2690] ({CH2CO}-[NMeA][Phe(4-COOH)]D[Phe(3-Me)]Y(Carboxymethyl)[Bip]Y(Carboxymethyl)[Orn][dL][Dab][Cha][Val(3-OH)]EC[Dab]-NH2; thioether N-14) was tested. Which IC50 did it give?
Answer: Its IC50 is 0.481 µM.

Question: For `Cc1cccc(C[C@@H]2NC(=O)[C@H](CC(=O)O)NC(=O)[C@H](Cc3ccc(OCC(=O)O)cc3)NC(=O)[C@H](Cc3ccc(C(F)(F)F)cc3)NC(=O)CSC[C@@H](C(=O)N[C@@H](CCN)C(N)=O)NC(=O)[C@H](CCC(=O)O)NC(=O)[C@H](C(C)(C)O)NC(=O)[C@H](CC3CCCCC3)NC(=O)[C@H](CCN)NC(=O)[C@@H](CC(C)C)NC(=O)[C@H](CCCN)NC(=O)[C@H](Cc3ccc(OCC(=O)O)cc3)NC(=O)[C@H](Cc3ccc(-c4ccccc4)cc3)NC(=O)[C@H](Cc3ccc(OCC(=O)O)cc3)NC2=O)c1` [Compound 2691] ({CH2CO}-[Phe(4-CF3)]Y(Carboxymethyl)D[Phe(3-Me)]Y(Carboxymethyl)[Bip]Y(Carboxymethyl)[Orn][dL][Dab][Cha][Val(3-OH)]EC[Dab]-NH2; thioether N-14), which IC50 is on record?
Answer: Its IC50 is 0.0068 µM.

Question: Which IC50 does the source give for `COc1ccc(C[C@@H]2NC(=O)CSC[C@@H](C(=O)N[C@@H](CCN)C(N)=O)NC(=O)[C@H](CCC(=O)O)NC(=O)[C@H](C(C)(C)O)NC(=O)[C@H](CC3CCCCC3)NC(=O)[C@H](CCN)NC(=O)[C@@H](CC(C)C)NC(=O)[C@H](CCCN)NC(=O)[C@H](Cc3ccc(OCC(=O)O)cc3)NC(=O)[C@H](Cc3ccc(-c4ccccc4)cc3)NC(=O)[C@H](Cc3ccc(OCC(=O)O)cc3)NC(=O)[C@H](Cc3cccc(C)c3)NC(=O)[C@H](CC(=O)O)NC(=O)[C@H](Cc3ccc(OCC(=O)O)cc3)NC2=O)cc1` [Compound 2692] ({CH2CO}-Y(Me)Y(Carboxymethyl)D[Phe(3-Me)]Y(Carboxymethyl)[Bip]Y(Carboxymethyl)[Orn][dL][Dab][Cha][Val(3-OH)]EC[Dab]-NH2; thioether N-14) here?
Answer: The IC50 was 0.0047 µM.

Question: Which IC50 does the source give for `Cc1cccc(C[C@@H]2NC(=O)[C@H](CC(=O)O)NC(=O)[C@H](Cc3ccc(OC(F)(F)F)cc3)NC(=O)[C@H](CCN)NC(=O)CSC[C@@H](C(=O)N[C@@H](CCN)C(N)=O)NC(=O)[C@H](CCC(=O)O)NC(=O)[C@H](C(C)(C)O)NC(=O)[C@H](CC3CCCCC3)NC(=O)[C@H](CCN)NC(=O)[C@@H](CC(C)C)NC(=O)[C@H](CCCN)NC(=O)[C@H](Cc3ccc(OCC(=O)O)cc3)NC(=O)[C@H](Cc3ccc(-c4ccccc4)cc3)NC(=O)[C@H](Cc3ccc(OCC(=O)O)cc3)NC2=O)c1` [Compound 2693] ({CH2CO}-[Dab]Y(CF3)D[Phe(3-Me)]Y(Carboxymethyl)[Bip]Y(Carboxymethyl)[Orn][dL][Dab][Cha][Val(3-OH)]EC[Dab]-NH2; thioether N-14) here?
Answer: Its IC50 is 0.0424 µM.

Question: Which IC50 does the source give for `Cc1cccc(C[C@@H]2NC(=O)[C@H](CC(=O)O)NC(=O)[C@H](Cc3ccc(OCC(=O)O)cc3)NC(=O)[C@H](CCN)NC(=O)CSC[C@@H](C(=O)N[C@@H](CCN)C(N)=O)NC(=O)[C@H](CCC(=O)O)NC(=O)[C@H](C(C)(C)O)NC(=O)[C@H](CC3CCCCC3)NC(=O)[C@H](CCN)NC(=O)[C@@H](CC(C)C)NC(=O)[C@H](CCCN)NC(=O)[C@H](Cc3ccc(OC(F)(F)F)cc3)NC(=O)[C@H](Cc3ccc(-c4ccccc4)cc3)NC(=O)[C@H](Cc3ccc(OCC(=O)O)cc3)NC2=O)c1` [Compound 2694] ({CH2CO}-[Dab]Y(Carboxymethyl)D[Phe(3-Me)]Y(Carboxymethyl)[Bip]Y(CF3)[Orn][dL][Dab][Cha][Val(3-OH)]EC[Dab]-NH2; thioether N-14) here?
Answer: Its IC50 is 0.0165 µM.

Question: Which IC50 does the source give for `C#CC[C@H](NC(=O)[C@H](C)NC(=O)[C@@H]1CSCC(=O)N[C@@H](CCN)C(=O)N[C@@H](Cc2ccc(OCC(=O)O)cc2)C(=O)N[C@@H](CC(=O)O)C(=O)N[C@@H](Cc2cccc(C)c2)C(=O)N[C@@H](Cc2ccc(OCC(=O)O)cc2)C(=O)N[C@@H](Cc2ccc(-c3ccccc3)cc2)C(=O)N[C@@H](Cc2ccc(OCC(=O)O)cc2)C(=O)N[C@@H](CCCN)C(=O)N[C@H](CC(C)C)C(=O)N[C@@H](CCN)C(=O)N[C@@H](CC2CCCCC2)C(=O)N[C@@H](C(C)(C)O)C(=O)N[C@@H](CCCC)C(=O)N1)C(=O)O` [Compound 2696] ({CH2CO}-[Dab]Y(Carboxymethyl)D[Phe(3-Me)]Y(Carboxymethyl)[Bip]Y(Carboxymethyl)[Orn][dL][Dab][Cha][Val(3-OH)][Nle]CA[Pra]-OH; thioether N-14) here?
Answer: Its IC50 is 0.0171 µM.
